Test results published in ChEMBL document CHEMBL1201862, “PubChem BioAssay data set” (2004).
Activity calls are given as the source filed them.

Columns and labels:
[1] = inhibitors of intracellular T. cruzi replication, confirmation, NIH3T3 host cells, beta-gal luminescence (AID 2044); format: functional, cell-based;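 note: intracellular parasites grown in NIH/3T3 mouse fibroblasts as host cells; luminescent beta-galactosidase reporter signal from transgenic T. cruzi replicating inside host cells; inhibitors lower the luminescence signal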
[2] = cytotoxicity toward NIH3T3 fibroblasts, dose response, counter-screen, cell-based, ATP luminescence, mouse fibroblasts (AID 2010); format: functional;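 note: cells exposed to compound for about 90 hours before reading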
[3] = target: T1, Mannose-6-phosphate isomerase (Homo sapiens, UniProt P34949); assay: human PMI inhibitors, high substrate, primary screen, biochemical, fluorescence intensity, high mannose 6-phosphate (AID 1220)
T1 sequence (P34949 whole entry): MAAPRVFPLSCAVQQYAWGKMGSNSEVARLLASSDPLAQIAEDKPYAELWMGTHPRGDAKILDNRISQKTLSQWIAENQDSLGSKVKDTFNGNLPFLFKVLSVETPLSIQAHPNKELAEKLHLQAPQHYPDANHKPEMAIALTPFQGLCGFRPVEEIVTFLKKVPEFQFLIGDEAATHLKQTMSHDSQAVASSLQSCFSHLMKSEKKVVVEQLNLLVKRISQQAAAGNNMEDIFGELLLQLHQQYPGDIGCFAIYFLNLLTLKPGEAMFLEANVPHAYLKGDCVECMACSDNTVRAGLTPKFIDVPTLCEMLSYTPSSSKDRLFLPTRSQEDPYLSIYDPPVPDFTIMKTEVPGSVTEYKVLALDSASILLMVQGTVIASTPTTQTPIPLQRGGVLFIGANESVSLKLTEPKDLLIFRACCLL

cells [4] = format: functional
cells [5] = assay: cells
[6] = THP-1 cell cytotoxicity, dose response, cytotoxicity control for non-replicating M. tuberculosis project (AID 489025); format: functional
Large T antigen = Large T antigen (Simian virus 40, UniProt P03070); format: functional, Betapolyomavirus macacae;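 note: Confirmatory-stage PubChem screen for compounds that inhibit SV40 T antigen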
[7] = target: Bifunctional protein GlmU (Mycobacterium tuberculosis, UniProt P9WMN3); assay: Inhibitors of Mycobacterial Glucosamine-1-phosphate acetyl transferase (GlmU). Secondary screen.; set-up: species or system Mycobacterium tuberculosis H37Rv
[8] = target: Induced myeloid leukemia cell differentiation protein Mcl-1 (Homo sapiens, UniProt Q07820); format: functional
[9] = THP-1 cell cytotoxicity, dose response, cytotoxicity control for Vif-APOBEC3G degradation inhibitor project, THP-1 cells (AID 1117359); format: functional; conditions: Human immunodeficiency virus 1, THP-1
[10] = cytotoxicity in HPDE-C7 cells, cell-based, fluorescence, HTS (AID 430); format: functional; conditions: Homo sapiens
[11] = target: Glyceraldehyde-3-phosphate dehydrogenase (Homo sapiens, UniProt P04406)
Bcl-2-related protein A1 [12] = target: T2, Bcl-2-related protein A1 (Mus musculus, UniProt Q07440); assay: Bfl-1 inhibitors blocking BH3 peptide binding, confirmation, biochemical, TR-FRET, mouse Bfl-1 (AID 621);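 note: TR-FRET binding of GST-Bfl-1 to FITC-labelled Bid peptide via terbium antibody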
T2 sequence (Q07440 whole entry): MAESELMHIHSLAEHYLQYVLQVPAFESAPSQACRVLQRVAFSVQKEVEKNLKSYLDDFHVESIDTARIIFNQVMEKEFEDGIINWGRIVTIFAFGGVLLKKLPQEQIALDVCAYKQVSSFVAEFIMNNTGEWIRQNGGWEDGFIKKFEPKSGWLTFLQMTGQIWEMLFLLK

Bcl-2-related protein A1 [13] = target: T2, Bcl-2-related protein A1; assay: Bfl-1 inhibitors, primary screen, biochemical, fluorescence polarization, FITC-Bid, mouse (AID 432)
[14] = cytotoxicity in KRAS-transformed pancreatic duct cells, primary screen, cell-based, fluorescence, HTS (AID 431); format: functional; conditions: Homo sapiens;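 note: cell line used: HPDE-C7K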
Bcl-2-related protein A1 [15] = target: T2, Bcl-2-related protein A1; assay: Bfl-1 binding inhibitors, SAR follow-up, biochemical, fluorescence polarization (AID 1070)
Protein RecA = target: T3, Protein RecA (Mycobacterium tuberculosis, UniProt P9WHJ3); assay: Fluorescence Cell-Free Homogeneous Dose Retest to Identify Inhibitors of RecA-Intein Splicing Activity. [Related pubchem assays (depositor defined):AID2097, AID2223, AID489010, AID492950]; format: functional
T3 sequence (P9WHJ3 whole entry): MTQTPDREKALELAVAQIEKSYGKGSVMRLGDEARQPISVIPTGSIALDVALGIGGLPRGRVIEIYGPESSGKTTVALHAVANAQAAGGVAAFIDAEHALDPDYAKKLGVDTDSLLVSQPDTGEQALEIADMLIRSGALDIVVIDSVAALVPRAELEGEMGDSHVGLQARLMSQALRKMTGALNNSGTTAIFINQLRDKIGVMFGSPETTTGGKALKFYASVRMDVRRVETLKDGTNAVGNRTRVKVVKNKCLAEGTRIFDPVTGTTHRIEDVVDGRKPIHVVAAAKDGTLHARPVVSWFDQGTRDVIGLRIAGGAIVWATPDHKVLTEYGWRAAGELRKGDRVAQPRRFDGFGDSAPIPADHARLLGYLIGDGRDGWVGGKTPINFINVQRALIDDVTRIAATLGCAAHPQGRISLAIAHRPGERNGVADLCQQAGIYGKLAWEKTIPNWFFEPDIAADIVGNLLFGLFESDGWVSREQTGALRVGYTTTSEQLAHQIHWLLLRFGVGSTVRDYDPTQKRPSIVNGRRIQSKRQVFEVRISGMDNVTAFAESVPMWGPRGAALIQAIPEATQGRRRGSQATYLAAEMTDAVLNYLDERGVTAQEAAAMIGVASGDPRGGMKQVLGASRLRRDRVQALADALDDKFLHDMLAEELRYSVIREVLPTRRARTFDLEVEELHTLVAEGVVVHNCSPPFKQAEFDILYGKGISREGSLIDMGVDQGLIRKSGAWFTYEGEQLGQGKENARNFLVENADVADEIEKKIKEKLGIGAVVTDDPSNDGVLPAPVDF

Genome polyprotein = Genome polyprotein (dengue virus type 2, UniProt P29990); assay: Dengue-2 NS5 methyltransferase inhibitors, primary screen, biochemical, confirmation dose response (AID 588689); format: functional
[16] = target: T4, Replicative DNA helicase DnaB (Mycobacterium tuberculosis, UniProt P9WMR3); assay: DnaB intein splicing inhibitors, dose response, biochemical, cell-free fluorescence (AID 449749); format: functional
T4 sequence (P9WMR3 whole entry): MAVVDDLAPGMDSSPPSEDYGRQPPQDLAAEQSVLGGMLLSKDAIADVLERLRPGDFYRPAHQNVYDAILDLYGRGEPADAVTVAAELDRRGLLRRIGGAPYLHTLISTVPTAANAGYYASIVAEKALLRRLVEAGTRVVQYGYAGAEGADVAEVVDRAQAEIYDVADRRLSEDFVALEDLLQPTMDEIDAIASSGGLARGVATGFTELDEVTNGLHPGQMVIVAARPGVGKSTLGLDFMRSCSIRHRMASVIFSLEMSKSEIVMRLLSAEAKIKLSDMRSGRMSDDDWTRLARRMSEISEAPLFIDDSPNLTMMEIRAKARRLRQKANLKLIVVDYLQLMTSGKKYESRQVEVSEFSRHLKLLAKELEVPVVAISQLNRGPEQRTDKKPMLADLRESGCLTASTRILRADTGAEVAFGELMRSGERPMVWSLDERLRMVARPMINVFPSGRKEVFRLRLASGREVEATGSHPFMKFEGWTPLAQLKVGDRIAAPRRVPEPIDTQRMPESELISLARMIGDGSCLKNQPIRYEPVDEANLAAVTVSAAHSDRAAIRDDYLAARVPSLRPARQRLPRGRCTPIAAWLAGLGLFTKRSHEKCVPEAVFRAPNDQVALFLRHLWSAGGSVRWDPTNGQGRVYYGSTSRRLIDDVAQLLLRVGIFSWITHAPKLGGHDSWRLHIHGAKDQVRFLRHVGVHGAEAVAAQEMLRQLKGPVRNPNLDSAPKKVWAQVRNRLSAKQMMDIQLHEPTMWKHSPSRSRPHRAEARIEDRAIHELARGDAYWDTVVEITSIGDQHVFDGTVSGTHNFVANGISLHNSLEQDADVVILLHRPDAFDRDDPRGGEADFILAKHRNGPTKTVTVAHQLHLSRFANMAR

[17] = inhibitors of Vif binding to APOBEC3G peptide, primary screen, biochemical, TR-FRET, GST-Vif 1-94, biotin-A3G peptide, dose response retest (AID 1117319); format: functional;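 note: TR-FRET signal of purified GST-Vif binding a biotinylated A3G peptide; inhibitors lower the FRET signal by blocking Vif and A3G binding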
Protein Tat = Protein Tat (Human immunodeficiency virus type 1 group M subtype B (isolate HXB2)(HIV-1), UniProt P04608); format: functional;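 note: tat binding to TAR RNA read out by fluorescence polarization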
cells [18] = format: functional, cell-based
[19] = inhibitors of firefly luciferase expression or activity, dose response, H4 neuroglioma cells, luminescence (AID 1990); format: functional, cell-based
[20] = luciferase reporter signal reduction – luminescence, H4-C neuroglioblastoma cells, dose response (AID 2458); format: functional, cell-based;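 note: H4 neuroglioblastoma cells stably carrying a luciferase reporter gene fusion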
[21] = inhibitors of SNCA 5'UTR-driven reporter translation, confirmation, H4 neuroglioma cells, luminescence (AID 1988); format: functional, cell-based
[22] = inhibitors of SNCA 5'UTR-driven translation, confirmation, luminescence, H4 neuroglioblastoma cells, dose confirmation (AID 2454); format: functional, cell-based;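 note: H4 neuroglioblastoma cells carrying an alpha-synuclein 5'UTR luciferase reporter; potency for inhibition of the luciferase signal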
[23] = Luminescence Cell-Based Dose Response HTS to Identify Inhibitors of 5'UTR Stem-Loop Driven Prion Protein mRNA Translation in H4 Neuroglioblastoma Cells. [Related pubchem assays: 1827 (Project Summary), 1813 (Primary HTS)]; format: functional
[24] = target: T5, Short transient receptor potential channel 4 (Mus musculus, UniProt Q9QUQ5); assay: mouse TRPC4 channel inhibitors, dose response, cell-based, HEK293 TRPC4/mu-opioid, Fluo-4 calcium (AID 434942); format: functional;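 note: potency of inhibitors blocking the TRPC4 calcium response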
T5 sequence (Q9QUQ5 whole entry): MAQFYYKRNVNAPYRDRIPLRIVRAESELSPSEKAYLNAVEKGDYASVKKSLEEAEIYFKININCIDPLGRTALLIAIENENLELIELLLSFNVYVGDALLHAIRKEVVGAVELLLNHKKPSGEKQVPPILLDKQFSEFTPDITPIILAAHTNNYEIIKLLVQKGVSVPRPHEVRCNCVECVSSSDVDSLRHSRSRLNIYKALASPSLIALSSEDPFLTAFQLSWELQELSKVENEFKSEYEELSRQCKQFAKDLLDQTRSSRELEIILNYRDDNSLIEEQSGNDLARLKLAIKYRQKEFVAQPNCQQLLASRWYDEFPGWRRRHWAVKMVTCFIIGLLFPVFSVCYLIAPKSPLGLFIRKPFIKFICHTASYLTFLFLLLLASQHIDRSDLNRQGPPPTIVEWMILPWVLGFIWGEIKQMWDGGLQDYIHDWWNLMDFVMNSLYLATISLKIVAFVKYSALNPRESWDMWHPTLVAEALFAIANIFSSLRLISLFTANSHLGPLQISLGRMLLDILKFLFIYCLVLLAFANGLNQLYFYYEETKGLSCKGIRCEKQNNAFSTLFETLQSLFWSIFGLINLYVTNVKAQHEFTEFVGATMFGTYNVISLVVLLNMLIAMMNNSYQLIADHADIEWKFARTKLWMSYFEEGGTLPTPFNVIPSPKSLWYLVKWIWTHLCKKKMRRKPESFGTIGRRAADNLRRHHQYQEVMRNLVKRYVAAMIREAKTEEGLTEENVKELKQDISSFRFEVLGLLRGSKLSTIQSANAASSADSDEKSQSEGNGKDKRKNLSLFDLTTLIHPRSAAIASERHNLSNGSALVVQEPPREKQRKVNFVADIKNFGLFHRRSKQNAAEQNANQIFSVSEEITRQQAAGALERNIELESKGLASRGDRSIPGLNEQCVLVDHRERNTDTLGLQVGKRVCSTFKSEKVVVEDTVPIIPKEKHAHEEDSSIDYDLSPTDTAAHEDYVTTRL

Sequence of Induced myeloid leukemia cell differentiation protein Mcl-1 (Q07820 whole entry): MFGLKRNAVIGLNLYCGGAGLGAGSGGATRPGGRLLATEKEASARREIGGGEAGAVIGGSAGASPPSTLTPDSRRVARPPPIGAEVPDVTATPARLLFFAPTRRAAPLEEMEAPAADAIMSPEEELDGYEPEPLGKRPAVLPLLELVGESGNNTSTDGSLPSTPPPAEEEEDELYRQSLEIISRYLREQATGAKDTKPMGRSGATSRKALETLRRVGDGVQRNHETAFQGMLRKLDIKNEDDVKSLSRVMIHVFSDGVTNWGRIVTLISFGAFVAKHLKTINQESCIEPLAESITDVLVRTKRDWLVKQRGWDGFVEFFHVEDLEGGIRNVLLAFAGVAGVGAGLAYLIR
Sequence of Protein Tat (P04608 whole entry): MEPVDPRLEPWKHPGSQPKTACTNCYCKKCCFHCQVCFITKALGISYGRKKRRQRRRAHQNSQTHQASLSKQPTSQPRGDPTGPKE
Sequence of Bifunctional protein GlmU (P9WMN3 whole entry): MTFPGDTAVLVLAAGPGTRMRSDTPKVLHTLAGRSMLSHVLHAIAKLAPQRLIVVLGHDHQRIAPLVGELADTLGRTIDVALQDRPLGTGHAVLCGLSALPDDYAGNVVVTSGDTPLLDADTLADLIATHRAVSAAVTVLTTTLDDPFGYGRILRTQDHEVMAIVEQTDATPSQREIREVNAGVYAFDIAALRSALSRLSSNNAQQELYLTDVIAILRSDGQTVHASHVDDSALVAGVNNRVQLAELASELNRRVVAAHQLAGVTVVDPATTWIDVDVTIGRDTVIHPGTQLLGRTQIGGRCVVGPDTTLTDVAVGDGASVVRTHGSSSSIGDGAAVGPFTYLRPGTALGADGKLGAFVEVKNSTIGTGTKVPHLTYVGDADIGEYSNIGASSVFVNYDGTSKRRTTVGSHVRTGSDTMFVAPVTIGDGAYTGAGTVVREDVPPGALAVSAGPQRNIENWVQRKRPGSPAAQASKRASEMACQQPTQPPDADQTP
Sequence of Large T antigen (P03070 whole entry): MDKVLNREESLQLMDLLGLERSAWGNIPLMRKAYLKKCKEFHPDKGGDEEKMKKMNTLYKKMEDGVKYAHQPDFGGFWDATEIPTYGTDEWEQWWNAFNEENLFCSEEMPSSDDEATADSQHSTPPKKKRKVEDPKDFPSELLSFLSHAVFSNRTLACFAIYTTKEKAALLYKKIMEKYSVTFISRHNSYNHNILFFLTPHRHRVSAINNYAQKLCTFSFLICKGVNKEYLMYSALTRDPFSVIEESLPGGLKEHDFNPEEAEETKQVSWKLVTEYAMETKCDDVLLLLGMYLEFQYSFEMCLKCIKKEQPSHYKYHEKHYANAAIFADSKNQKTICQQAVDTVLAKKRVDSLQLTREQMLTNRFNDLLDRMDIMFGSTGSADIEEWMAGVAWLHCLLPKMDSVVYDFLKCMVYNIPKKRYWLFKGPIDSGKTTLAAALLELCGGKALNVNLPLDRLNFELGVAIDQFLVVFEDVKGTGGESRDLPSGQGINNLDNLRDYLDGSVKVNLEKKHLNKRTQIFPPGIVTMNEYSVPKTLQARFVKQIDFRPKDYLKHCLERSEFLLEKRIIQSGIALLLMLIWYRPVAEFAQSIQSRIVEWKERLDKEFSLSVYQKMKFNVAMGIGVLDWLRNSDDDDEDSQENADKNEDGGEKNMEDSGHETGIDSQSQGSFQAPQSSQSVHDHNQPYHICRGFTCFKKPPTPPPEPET
Sequence of Glyceraldehyde-3-phosphate dehydrogenase (P04406 whole entry): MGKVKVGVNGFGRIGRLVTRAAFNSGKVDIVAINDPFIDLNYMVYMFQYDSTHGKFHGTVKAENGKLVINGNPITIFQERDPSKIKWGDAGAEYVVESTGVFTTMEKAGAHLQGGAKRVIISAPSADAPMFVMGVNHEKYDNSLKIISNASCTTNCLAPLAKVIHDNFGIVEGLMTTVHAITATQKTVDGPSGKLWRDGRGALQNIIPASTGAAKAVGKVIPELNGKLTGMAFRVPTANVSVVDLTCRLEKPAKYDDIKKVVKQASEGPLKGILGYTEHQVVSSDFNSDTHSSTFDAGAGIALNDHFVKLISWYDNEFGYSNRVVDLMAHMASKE
Sequence of Genome polyprotein (P29990 2492-3391 limits assumed): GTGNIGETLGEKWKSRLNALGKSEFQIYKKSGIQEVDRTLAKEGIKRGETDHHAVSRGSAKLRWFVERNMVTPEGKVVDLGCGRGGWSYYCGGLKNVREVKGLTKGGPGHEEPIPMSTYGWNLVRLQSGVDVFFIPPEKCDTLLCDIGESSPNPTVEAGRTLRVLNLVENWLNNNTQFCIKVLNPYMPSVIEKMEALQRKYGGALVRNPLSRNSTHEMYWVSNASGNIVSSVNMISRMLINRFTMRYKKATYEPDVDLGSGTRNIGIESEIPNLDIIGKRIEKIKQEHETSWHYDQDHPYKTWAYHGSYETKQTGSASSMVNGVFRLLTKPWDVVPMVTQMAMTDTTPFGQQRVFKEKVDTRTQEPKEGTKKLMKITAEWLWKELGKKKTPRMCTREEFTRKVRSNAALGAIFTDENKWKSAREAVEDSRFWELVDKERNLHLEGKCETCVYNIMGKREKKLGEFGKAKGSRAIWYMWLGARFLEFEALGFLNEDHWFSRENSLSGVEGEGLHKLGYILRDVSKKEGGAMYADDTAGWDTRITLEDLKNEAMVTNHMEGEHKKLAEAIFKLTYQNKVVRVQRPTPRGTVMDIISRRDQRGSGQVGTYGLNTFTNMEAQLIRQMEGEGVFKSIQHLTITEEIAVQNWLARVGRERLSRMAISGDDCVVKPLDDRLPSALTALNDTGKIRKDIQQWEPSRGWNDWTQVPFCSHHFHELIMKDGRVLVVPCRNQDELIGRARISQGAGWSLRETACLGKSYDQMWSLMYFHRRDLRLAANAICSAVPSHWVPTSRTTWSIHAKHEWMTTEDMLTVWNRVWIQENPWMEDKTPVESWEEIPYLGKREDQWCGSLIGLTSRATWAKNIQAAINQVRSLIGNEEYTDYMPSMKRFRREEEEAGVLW

COc1ccccc1CNc1ccc(N2CCCCC2)cc1
EC50 [1]: 3.17 µM (active)
EC50 [2]: > 60 µM (not active)
IC50 [3]: > 50 µM (not active)

COc1cccc(OCCNC(=O)c2cc([N+](=O)[O-])cc([N+](=O)[O-])c2)c1
EC50 [1]: < 0.1 µM (active)
IC50 (cells [4]): 0.36 µM (active)
EC50 [2]: > 60 µM (not active)
EC50 (cells [5]): 0.086 µM (active)

O=C1NC(=S)S/C1=C\c1ccc(SCc2ccco2)o1
CC50 [6]: > 40 µM (active)
IC50 (Large T antigen): 6.01 µM (active)
IC50 [7]: 17.7 µM (active)
IC50 [8]: 1.53 µM (active)
CC50 [9]: > 40 µM (active)

COc1ccc2c3c(cccc13)NN=C2C
EC50 [10]: 13 µM (active)
IC50 [11]: > 100 µM (not active)
IC50 (Bcl-2-related protein A1 [12]): > 100 µM (not active)
IC50 (Bcl-2-related protein A1 [13]): 5.44 µM (active)
EC50 [14]: 9.74 µM (active)
IC50 (Bcl-2-related protein A1 [15]): > 100 µM (not active)

O=C(O)c1cccc(Nc2cc(Cl)c3nonc3c2[N+](=O)[O-])c1
EC50 (Protein RecA): 2.52 µM (active)
IC50 (Genome polyprotein): 10.7 µM (active)
IC50 [7]: 131 µM (active)
AC50 [16]: 2.05 µM (active)

COc1ccccc1C1=Nc2cccc3cccc(c23)N1
IC50 [17]: > 63.3 µM (active)
IC50 (Protein Tat): > 100 µM (inconclusive)
EC50 [1]: 6.83 µM (active)
EC50 [2]: > 30 µM (not active)
IC50 [8]: < 0.4 µM (not active)
CC50 [9]: > 40 µM (active)

CCC(C)Cn1c(O)cc2nn(-c3nc4ccccc4s3)c(=O)c-2c1C (centres undefined)
EC50 (cells [18]): 0.114 µM (active)
EC50 [19]: < 0.1 µM (active)
IC50 (Protein Tat): > 50 µM (active)
EC50 [20]: 0.058 µM (active)
EC50 [21]: < 0.1 µM (active)
EC50 [22]: 0.072 µM (active)
EC50 [23]: 0.165 µM (active)

Clc1cccc(C[n+]2cc(-c3ccccc3)n3c2CCC3)c1
EC50 [24]: 0.944 µM (active)
EC50 [1]: < 0.1 µM (active)
EC50 [2]: > 60 µM (not active)
EC50 (cells [5]): 0.007 µM (active)
